According to patent publication US10195156B2, “Compounds and compositions for intracellular delivery of agents” (ModernaTX, Inc., priority 2015, dated 2019):

What was measured:
[1] = Particle size and polydispersity index of nanoparticle compositions (Zetasizer Nano ZS); format: physicochemical; conditions: for particle size, rank within the named table (in words): comparison amongst compositions
In short: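 In 1×PBS, the compositions were sized on a Zetasizer Nano ZS, which also reported their polydispersity index.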

[2] = Encapsulation efficiency of RNA (QUANT-IT RIBOGREEN RNA assay); format: physicochemical; conditions: for encapsulation efficiency, rank within the named table (in words): comparison amongst compositions
In short: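 Nanoparticle samples diluted to ~5 μg/mL RNA in TE buffer (pH 7.5), incubated with or without 2% Triton X-100 solution at 37 °C for 15 min, then RiboGreen added. Fluorescence read at ~480/520 nm, blank-subtracted; free RNA % = intact over Triton-disrupted signal.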

[3] = pKa of nanoparticle compositions; format: physicochemical
[4] = test system: luciferase (Luc) mRNA expression; assay: Expression of Luc induced by sample formulations, whole-body bioluminescence after intravenous administration; format: in vivo; conditions: mice, i.v., 0.5 mg/kg
In short: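 Mice (n=6) dosed intravenously with Luc mRNA nanoparticle formulations at 0.5 mg/kg. Whole-body bioluminescence measured at 3, 6 and 24 h. Standard MC3 formulation and PBS control run alongside.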

[5] = test system: modified luciferase expression; assay: Expression of Luc in different organs (liver, lung, spleen, femur) 6 hours after intravenous administration; format: in vivo; conditions: i.v., 0.5 mpk
Protocol: The efficacy of the nanoparticle compositions presented in Tables 1, 1a, 17-1, 19-1, 20-1 and 21-1 was further evaluated by measuring the expression of modified luciferase in the liver, lung, spleen, and femur upon administration of a given composition. Formulations were administered intravenously to mice (n=3) at a dosage of 0.5 mpk and bioluminescence measured after 6 hours. The standard MC3 formulation and a PBS control were also tested.

IL-6 = assay: Cytokine production induced by sample formulations: IL-6; format: in vivo; conditions: mice, i.v., 0.5 mpk, 6 hours; for IL-6: in pg/mL (unit assumed)
In short: (§1)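 Mice received nanoparticle formulations intravenously at 0.5 mpk, with standard MC3 formulation and PBS as controls. Cytokine concentrations were measured 6 hours after dosing.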

IP-10 = assay: Cytokine production induced by sample formulations: IP-10; format: in vivo; conditions: mice, i.v., 0.5 mpk, 6 hours; for IP-10: in pg/mL (unit assumed)
In short: as §1

[6] = Table 20-1, rows without footnote mark
[7] = Table 1, * formulated with lipid:DSPC:Chol:PEG-DMG 50:10:38.5:1.5
[8] = Table 1, * lipid:DSPC:Chol:PEG-DMG 50:10:38.5:1.5

SMILES | PDI ([1]; Table 19-1) | Size (nm) ([1]; Table 19-1) | EE (%) ([2]; Table 19-1) | pKa ([3]; Table 19-1) | Total Flux 3 hours ([4]; Table 19-2) | Total Flux 6 hours ([4]; Table 19-2) | Total Flux 24 hours ([4]; Table 19-2, 24 hours) | PDI [1, 6] | Size (nm) [1, 6] | EE (%) [2, 6] | pKa [3, 6] | Total Flux 3 hours ([4]; Table 20-2) | Total Flux 6 hours ([4]; Table 20-2) | Total Flux 24 hours ([4]; Table 20-2, 24 hours) | Total Flux Liver ([5]; Table 20-3, mice) | Total Flux Lung ([5]; Table 20-3, mice) | Total Flux Spleen ([5]; Table 20-3, mice) | IL-6 (IL-6; Table 20-4, formula (20-I)) | IP-10 (IP-10; Table 20-4, formula (20-I)) | particle size, rank within the named table (in words) [1] | other results
CCCCCCCCCN(CCCCCCCCC)CCN1CCNCC1 [Compound 19-1, N-Nonyl-N-(2-(piperazin-1-yl)ethyl)nonan-1-amine] | 0.071 | 98.0 nm | 83.4% | 6.76 | 6.77E+05 | 1.85E+06 | 2.75E+05 |  |  |  |  |  |  |  |  |  |  |  |  |  | Total Flux Liver ([5]; Table 19-3, mice): 8.53E+05; Total Flux Lung ([5]; Table 19-3, mice): 1.06E+04; Total Flux Spleen ([5]; Table 19-3, mice): 1.58E+04; IL-6 (IL-6; Table 19-4): 144.4; IP-10 (IP-10; Table 19-4): 51.1; IP-10 induction, rank or comparison with IL-6 (in words) (IP-10): lowest IP-10 expression
CCCCCCCOC(=O)CCCCCN(CCO)CCN(CCCCCC(=O)OCCCCCCC)CCCCCC(=O)OCCCCCCC [Compound 20-5, Diheptyl 6,6′-((2-((6-(heptyloxy)-6-oxohexyl)(2hydroxyethyl)amino)ethyl)azanediyl)dihexanoate] |  |  |  |  |  |  |  | 0.210 | 119.3 nm | 78.1% | 6.79 | 6.07E+07 | 1.99E+07 | 2.07E+06 | 2.67E+06 | 5.80E+04 | 3.40E+06 | 140.8 | 2012.3 |  | Total Flux Femur ([5]; Table 20-3, mice): 9.53E+04
CCCCC/C=C\C/C=C\CCCCCCCCN(CCCCCCCC/C=C\C/C=C\CCCCC)CCN1CCNCC1 [Compound 19-3, (9Z,12Z)—N-((9Z,12Z)—Octadeca-9,12-dien-1-yl)-N-(2-(piperazin-1-yl)ethyl)octadeca-9,12-dien-1-amine] | 0.076 | 47.9 nm | 99.7% | 7.24 | 1.69E+06 | 1.21E+06 | 3.39E+05 |  |  |  |  |  |  |  |  |  |  |  |  | smallest particles | encapsulation efficiency, rank within the named table (in words) [2]: highest encapsulation efficiency; Total Flux Liver ([5]; Table 19-3, mice): 2.65E+05; Total Flux Lung ([5]; Table 19-3, mice): 3.00E+04; Total Flux Spleen ([5]; Table 19-3, mice): 2.55E+05; IL-6 (IL-6; Table 19-4): 5.4; IL-6 induction, rank within the named table (in words) (IL-6): lowest IL-6 expression; IP-10 (IP-10; Table 19-4): 177.5
CCCCCCCCCCCCN(CCCCCCCCCCCC)CCN(CCO)CCCCCCCC(=O)OCCCCCCCCC [Compound 20-8, Nonyl 8-((2-(didodecylamino)ethyl)(2-hydroxyethyl)amino)octanoate] |  |  |  |  |  |  |  | 0.141 | 67.9 nm | 96.6% | 6.43 | 2.76E+09 | 4.37E+09 | 1.30E+08 | 8.09E+08 | 3.45E+06 | 2.70E+07 | 18.4 | 134.0 | smallest particles | Total Flux Femur ([5]; Table 20-3, mice): 1.62E+06
CCCCCCCCCCCCN(CCCCCCCCCCCC)CCN(CCO)CCCCCC(=O)OCCCCC [Compound 20-3, Pentyl 6-((2-(didodecylamino)ethyl)(2-hydroxyethyl)amino)hexanoate] |  |  |  |  |  |  |  | 0.110 | 76.4 nm | 95.8% | 6.82 | 5.35E+09 | 3.00E+09 | 6.49E+07 | 4.33E+08 | 6.08E+05 | 6.35E+06 | 105.8 | 671.5 |  | Total Flux Femur ([5]; Table 20-3, mice): 1.73E+06
CCCCCCCCCCCCN(CCCCCCCCCCCC)CCN(CCO)CCCCCC [Compound 20-15, 2-((2-(Didodecylamino)ethyl)(hexyl)amino)ethan-1-ol] |  |  |  |  |  |  |  | 0.118 | 67.4 nm | 97.4% | 6.48 | 3.36E+08 | 2.25E+08 | 2.08E+07 | 6.74E+07 | 5.56E+05 | 1.86E+06 | 49.4 | 136.3 | smallest particles | 
CCCCCCCCCCCCN(CCCCCCCCCCCC)CCN1CCN(C)CC1 [Compound 19-4, N-Dodecyl-N-(2-(4-methylpiperazin-1-yl)ethyl)dodecan-1-amine] | 0.071 | 111.4 nm | 95.2% | 7.09 | 6.61E+05 | 4.75E+05 | 3.44E+05 |  |  |  |  |  |  |  |  |  |  |  |  |  | Total Flux Liver ([5]; Table 19-3, mice): 1.46E+05; Total Flux Lung ([5]; Table 19-3, mice): 4.49E+04; Total Flux Spleen ([5]; Table 19-3, mice): 3.69E+04; IL-6 (IL-6; Table 19-4): 129.2; IP-10 (IP-10; Table 19-4): 430.9; IP-10 induction, rank or comparison with IL-6 (in words) (IP-10): highest IP-10 expression
CCCCC/C=C\C/C=C\CCCCCCCCN(CCCCCCCC/C=C\C/C=C\CCCCC)CCN(CCCCCCCC/C=C\C/C=C\CCCCC)CCN1CCN(CCN(CCCCCCCCCCCC)CCCCCCCCCCCC)CC1 [Compound 34, N^1-(2-(4-(2-(Didodecylamino)ethyl)piperazin-1-yl)ethyl)-N^1,N^2,N^2-tri((9Z,12Z)-octadeca-9,12-dien-1-yl)ethane-1,2-diamine] |  |  |  |  |  |  |  |  |  |  |  |  |  |  |  |  |  |  |  | smallest particles | Size (nm) [1, 7]: 66.0 nm; PDI [1, 8]: 0.077; EE (%) [2, 8]: 98.1%; pKa [3, 8]: 5.74; Total Flux 3 hours ([4]; Table 2): 7.77E+06; Total Flux 6 hours ([4]; Table 2): 1.88E+07; Total Flux 24 hours ([4]; Table 2, 24 hours): 2.19E+06; Total Flux Liver ([5]; Table 3, mice): 2.79E+06; Total Flux Lung ([5]; Table 3, mice): 5.63E+04; Total Flux Spleen ([5]; Table 3, mice): 1.22E+06; IL-6 (IL-6; Table 4): 28; IP-10 (IP-10; Table 4): 159
CCCCCCCCCN(CCCCCCCCC)CCN(CCCCCCCCC)CCN1CCNCC1 [Compound 36, N^1,N^1,N^2-Trinonyl-N^2-(2-(piperazin-1-yl)ethyl)ethane-1,2-diamine] |  |  |  |  |  |  |  |  |  |  |  |  |  |  |  |  |  |  |  |  | Size (nm) [1, 7]: 100.8 nm; PDI [1, 8]: 0.110; EE (%) [2, 8]: 100.2%; encapsulation efficiency, rank within the named table (in words) [2]: highest; pKa [3, 8]: 7.81; Total Flux 3 hours ([4]; Table 2): 6.90E+05; Total Flux 6 hours ([4]; Table 2): 3.93E+05; Total Flux 24 hours ([4]; Table 2, 24 hours): 1.68E+05; total flux after 24 hours, rank within the named table (in words) ([4]; 24 hours): lowest flux after 24 hours; Total Flux Liver ([5]; Table 3, mice): 5.85E+04; Total Flux Lung ([5]; Table 3, mice): 2.74E+04; Total Flux Spleen ([5]; Table 3, mice): 1.24E+05; IL-6 (IL-6; Table 4): 41; IP-10 (IP-10; Table 4): 118; IP-10 induction, rank or comparison with IL-6 (in words) (IP-10): lowest IP-10 expression
CCCCCCCCCCCCN(CCCCCCCCCCCC)CCN(CCO)CCCCCCCCC [Compound 20-17, 2-((2-(didodecylamino)ethyl)(nonyl)amino)ethan-1-ol] |  |  |  |  |  |  |  | 0.092 | 71.2 nm | 98.2% | 6.25 | 1.97E+07 | 1.44E+07 | 1.54E+06 | 2.99E+06 | 2.79E+04 | 9.56E+04 | 6.3 | 1207.0 |  | 
